System: MRSA
Test: Activity against a strain of MRSA pathogen, relative to thienamycin
Type: cell-based, methicillin resistant Staphylococcus aureus
Conditions: relative to the effectiveness of thienamycin, arbitrarily assigned an effectiveness of 1
Description: The activity of the following compounds was measured against a strain of MRSA pathogen and reported as relative to the effectiveness of thienamycin, which is arbitrarily assigned an effectiveness of 1. Regarding this measure of activity, reference is made to R. Guthikonda, et al., J. Med. Chem., 30, 871 (1987). [drawing 76]

| Structure (SMILES) | ANTI-INFECTIVE ACTIVITY MRSA |
| --- | --- |
| C[C@@H](O)[C@H]1C(=O)N2C(C(=O)O)=C(c3cc([S+](C)[O-])cc([S+](C)[O-])c3)C[C@H]12 (stereo partly drawn) [R^a1=(S→O)Me, R^a2=H, R^a3=(S→O)Me] | 1.2 |
| C[C@@H](O)[C@H]1C(=O)N2C(C(=O)O)=C(c3cc([S+](C)[O-])cc(S(C)(=O)=O)c3)C[C@H]12 (stereo partly drawn) [R^a1=(S→O)Me, R^a2=H, R^a3=[drawing]] | 3.7 |
| CC(O)C1C(=O)N2C(C(=O)O)=C(c3cc(Br)cc(CO)c3)CC12 (stereo not drawn) [R^a1=Br, R^a2=H, R^a3=CH2OH, reference compound] | 8.7 |
| CC(O)C1C(=O)N2C(C(=O)O)=C(c3cc(Br)cc(C=O)c3)CC12 [R^a1=Br, R^a2=H, R^a3=HC=O, sodium (5R,6S)-2-[(3-aldehydo)-(5-bromo)phenyl]-6-[(1R)-1-hydroxyethyl]carbapen-2-em-3-carboxylate] | 219 |
| CC(O)C1C(=O)N2C(C(=O)O)=C(c3cccc(CO)c3)CC12 (stereo not drawn) [R^a1=H, R^a2=H, R^a3=CH2OH, reference compound] | 0.9 |
| CC(O)C1C(=O)N2C(C(=O)O)=C(c3cccc(C=O)c3)CC12 (stereo not drawn) [R^a1=H, R^a2=H, R^a3=HC=O, reference compound] | 3.3 |
| CC(O)C1C(=O)N2C(C(=O)O)=C(c3ccc(C=O)cc3)CC12 (stereo not drawn) [R^a1=H, R^a2=HC=O, R^a3=H, reference compound] | 2 |
| CC(O)C1C(=O)N2C(C(=O)O)=C(c3ccc(I)cc3)CC12 (stereo not drawn) [R^a1=H, R^a2=I, R^a3=H, reference compound] | 1.8 |
| CC(O)C1C(=O)N2C(C(=O)O)=C(c3cc(I)cc([S+](C)[O-])c3)CC12 [R^a1=I, R^a2=H, R^a3=(S→O)Me, sodium (5R, 6S)-2-[(3-methylsulfinyl)-5-iodophenyl]-6-[(1R)-1-hydroxyethyl]carbapen-2-em-3-carboxylate] | 63 |
| CC(O)C1C(=O)N2C(C(=O)O)=C(c3cccc(I)c3)CC12 (stereo not drawn) [R^a1=I, R^a2=H, R^a3=H, reference compound] | 21 |
| CC(O)C1C(=O)N2C(C(=O)O)=C(c3cc(I)cc(I)c3)CC12 [R^a1=I, R^a2=H, R^a3=I, sodium (5R,6S)-2-[(3,5-diiodo)phenyl]-6-[1R-1-hydroxyethyl]-carbapen-2-em-3-carboxylate] | 88 |
| CSc1cc(I)cc(C2=C(C(=O)O)N3C(=O)C(C(C)O)C3C2)c1 [R^a1=I, R^a2=H, R^a3=SMe, sodium (5R, 6S)-2-[(3-methylthio)-5-iodophenyl]-6-[(1R)-1-hydroxyethyl]carbapen-2-em-3-carboxylate] | 60 |
| CC(O)C1C(=O)N2C(C(=O)O)=C(c3cc(I)cc(S(C)(=O)=O)c3)CC12 (stereo not drawn) [R^a1=I, R^a2=H, R^a3=[drawing]] | 63 |
| CSc1cc(C2=C(C(=O)O)N3C(=O)[C@H]([C@@H](C)O)[C@H]3C2)cc([S+](C)[O-])c1 (stereo partly drawn) [R^a1=SMe, R^a2=H, R^a3=(S→O)Me, sodium (5R,6S)-2-[(3-methylsulfinyl)-(5-methylthio)phenyl]-6-[(1R)-hydroxyethyl]carbapen-2-em-3-carboxylate] | 6.1 |
| CSc1cc(CO)cc(C2=C(C(=O)O)N3C(=O)[C@H]([C@@H](C)O)[C@H]3C2)c1 [R^a1=SMe, R^a2=H, R^a3=CH2OH] | 3.2 |
| CSc1cc(C=O)cc(C2=C(C(=O)O)N3C(=O)[C@H]([C@@H](C)O)[C@H]3C2)c1 [R^a1=SMe, R^a2=H, R^a3=HC=O] | 61 |
| CSc1cc(SC)cc(C2=C(C(=O)O)N3C(=O)C(C(C)O)C3C2)c1 (stereo not drawn) [R^a1=SMe, R^a2=H, R^a3=SMe] | 28 |
| C[C@@H](O)[C@H]1C(=O)N2C(C(=O)O)=C(c3cc(S(C)(=O)=O)cc(S(C)(=O)=O)c3)C[C@H]12 [R^a1=[drawing], R^a2=H, R^a3=[drawing]] | 12 |

From patent EP0538016A1, “MRSA active 2-phenyl-carbapenems” (MERCK & CO. INC., priority 1991, dated 1993)
